We go through 54 compounds from ChEMBL document CHEMBL1932962, “Discovery, design and synthesis of novel potent and selective sphingosine-1-phosphate 4 receptor (S1P₄-R) agonists” (Bioorg Med Chem Lett, 2012).

Test [1] concerns the target T1, Sphingosine 1-phosphate receptor 4 (Homo sapiens, UniProt O95977).
T1 sequence (O95977 whole entry): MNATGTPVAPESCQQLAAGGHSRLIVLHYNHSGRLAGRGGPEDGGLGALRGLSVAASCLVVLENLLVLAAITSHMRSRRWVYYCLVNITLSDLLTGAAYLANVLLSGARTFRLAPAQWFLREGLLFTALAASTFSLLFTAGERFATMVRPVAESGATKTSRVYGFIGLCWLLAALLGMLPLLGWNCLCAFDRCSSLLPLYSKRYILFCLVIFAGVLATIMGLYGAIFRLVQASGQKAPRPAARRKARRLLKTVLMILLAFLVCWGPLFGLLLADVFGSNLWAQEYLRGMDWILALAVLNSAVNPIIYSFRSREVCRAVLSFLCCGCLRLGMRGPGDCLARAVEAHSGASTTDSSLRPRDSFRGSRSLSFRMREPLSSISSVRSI
The test can be described thus: Agonist activity at human S1P4R expressed in human U2OS cells containing EDG6 gene co-expressing GAL4-VP16 and beta-arrestin/TEV protease assessed as migration of VP16-GAL4 into nucleus up to 25 uM by […] based beta-lactamase reporter gene assay. Format: functional, cell-based. On the technique in general: In a reporter assay the amount or activity of a reporter protein is the signal.

Test [2] has as its target T1, Sphingosine 1-phosphate receptor 4. The experiment in a line: Agonist activity at human S1P4R expressed in human U2OS cells containing EDG6 gene co-expressing GAL4-VP16 and beta-arrestin/TEV protease assessed as migration of VP16-GAL4 into nucleus by […] based beta-lactamase reporter gene assay. Format: functional, cell-based.
Test [3] concerns the target Sphingosine 1-phosphate receptor 1 (Homo sapiens, UniProt P21453). The test can be described thus: Agonist activity at S1P1R up to 25 uM. The class given is functional.
In test [4] the target is Sphingosine 1-phosphate receptor 2 (Homo sapiens, UniProt O95136). The experiment in a line: Agonist activity at S1P2R up to 25 uM. Format: functional.
Sphingosine 1-phosphate receptor 2, sequence (O95136 whole entry): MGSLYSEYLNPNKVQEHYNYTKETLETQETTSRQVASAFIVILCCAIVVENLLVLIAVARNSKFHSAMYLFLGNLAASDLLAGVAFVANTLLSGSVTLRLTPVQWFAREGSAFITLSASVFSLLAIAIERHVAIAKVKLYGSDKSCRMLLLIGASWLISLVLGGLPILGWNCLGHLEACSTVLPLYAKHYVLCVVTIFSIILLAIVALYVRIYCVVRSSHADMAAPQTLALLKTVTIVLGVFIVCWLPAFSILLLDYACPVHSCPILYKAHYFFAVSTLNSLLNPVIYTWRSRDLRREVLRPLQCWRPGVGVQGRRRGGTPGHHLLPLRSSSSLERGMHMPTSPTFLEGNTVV
The target of test [5] is Sphingosine 1-phosphate receptor 3 (Homo sapiens, UniProt Q99500). The experiment in a line: Agonist activity at S1P3R up to 25 uM. Format: functional.
Sphingosine 1-phosphate receptor 3, sequence (Q99500 whole entry): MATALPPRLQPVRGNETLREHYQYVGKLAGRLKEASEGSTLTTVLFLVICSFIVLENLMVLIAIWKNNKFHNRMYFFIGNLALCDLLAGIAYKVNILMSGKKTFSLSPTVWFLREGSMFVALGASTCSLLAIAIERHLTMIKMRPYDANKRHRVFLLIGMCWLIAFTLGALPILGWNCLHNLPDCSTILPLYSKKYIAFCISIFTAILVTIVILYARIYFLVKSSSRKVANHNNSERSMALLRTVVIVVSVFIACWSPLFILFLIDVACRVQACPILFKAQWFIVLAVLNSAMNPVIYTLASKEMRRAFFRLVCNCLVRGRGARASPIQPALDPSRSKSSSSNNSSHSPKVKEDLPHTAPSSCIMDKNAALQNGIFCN
Test [6] has as its target Sphingosine 1-phosphate receptor 5 (Homo sapiens, UniProt Q9H228). The experiment in a line: Agonist activity at S1P5R up to 25 uM. The class given is functional.
For test [7], the target named is T2, Sphingosine 1-phosphate receptor 4 (Homo sapiens) (UniProt O95977).
T2 sequence (whole entry): T1 sequence (O95977 whole entry)
The experiment in a line: Agonist activity at human S1P4R expressed in human U2OS cells containing EDG6 gene co-expressing GAL4-VP16 and beta-arrestin/TEV protease assessed as migration of VP16-GAL4 into nucleus at 6000 nM by […] based beta-lactamase reporter gene assay. Format: functional, cell-based.

For test [8], the target named is T2, Sphingosine 1-phosphate receptor 4 (Homo sapiens). The experiment in a line: Agonist activity at human S1P4R expressed in human U2OS cells containing EDG6 gene co-expressing GAL4-VP16 and beta-arrestin/TEV protease assessed as migration of VP16-GAL4 into nucleus at 50 uM by […] based beta-lactamase reporter gene assay. Format: functional, cell-based.
Test [9] shares this target. The experiment in a line: Agonist activity at human S1P4R expressed in human U2OS cells containing EDG6 gene co-expressing GAL4-VP16 and beta-arrestin/TEV protease assessed as migration of VP16-GAL4 into nucleus at 2600 nM by […] based beta-lactamase reporter gene assay. Format: functional, cell-based.
Test [10] has the same target. The test can be described thus: Agonist activity at human S1P4R expressed in human U2OS cells containing EDG6 gene co-expressing GAL4-VP16 and beta-arrestin/TEV protease assessed as migration of VP16-GAL4 into nucleus at 1300 nM by […] based beta-lactamase reporter gene assay. The class given is functional, cell-based.

Sphingosine 1-phosphate receptor 1, sequence (P21453 whole entry): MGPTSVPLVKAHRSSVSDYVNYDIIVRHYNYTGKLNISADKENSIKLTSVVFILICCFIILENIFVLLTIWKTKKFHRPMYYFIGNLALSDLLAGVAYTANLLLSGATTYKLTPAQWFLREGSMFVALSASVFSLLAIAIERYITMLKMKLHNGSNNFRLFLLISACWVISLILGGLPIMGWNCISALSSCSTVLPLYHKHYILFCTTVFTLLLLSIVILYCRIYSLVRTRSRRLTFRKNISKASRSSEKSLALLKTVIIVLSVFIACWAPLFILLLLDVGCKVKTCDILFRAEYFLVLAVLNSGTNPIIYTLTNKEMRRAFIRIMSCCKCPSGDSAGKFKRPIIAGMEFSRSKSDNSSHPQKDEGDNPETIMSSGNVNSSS
Sphingosine 1-phosphate receptor 5, sequence (Q9H228 whole entry): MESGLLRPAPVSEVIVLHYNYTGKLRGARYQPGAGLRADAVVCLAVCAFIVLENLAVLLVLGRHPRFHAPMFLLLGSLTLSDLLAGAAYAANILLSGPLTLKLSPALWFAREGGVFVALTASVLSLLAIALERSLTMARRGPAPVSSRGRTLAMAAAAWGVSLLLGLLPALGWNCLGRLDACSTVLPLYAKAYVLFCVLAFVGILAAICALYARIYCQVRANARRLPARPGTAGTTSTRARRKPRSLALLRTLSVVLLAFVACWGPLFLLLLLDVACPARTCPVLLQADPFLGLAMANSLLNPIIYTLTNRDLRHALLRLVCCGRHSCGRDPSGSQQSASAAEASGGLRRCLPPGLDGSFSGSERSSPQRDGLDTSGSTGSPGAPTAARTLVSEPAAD

For orientation: EC50 means the midpoint of the concentration-response curve. As for `Cc1ccc(OCCOc2ccccc2)c([N+](=O)[O-])n1`, the EC50 result in test [1] is “Not Active”.
As for `Cc1ccc(OCCOc2ccccc2Cl)c([N+](=O)[O-])n1`, in [1], the EC50 result was “Not Active”.
On to `OCc1ccc(OCCOc2ccc(Cl)cc2Cl)c(I)n1`, for which the EC50 was 287 nM in [2]; “Not Active” in [3]; “Not Active” in [4]; “Not Active” in test [5]; “Not Active” in test [6].
On to `Clc1ccc(OCCOc2cccnc2Br)c(Cl)c1`, for which, in test [2], the EC50 was determined as 1300 nM.
Regarding `Cc1ccc(OCCOc2cc(Cl)ccc2Cl)c([N+](=O)[O-])n1`, the EC50 entry in test [1] is “Not Active”.
For the compound `O=[N+]([O-])c1nc(Cl)ccc1OCCOc1ccc(Cl)cc1Cl`, the EC50 in [2] was 304 nM; in test [3], “Not Active”; in [4], “Not Active”; in test [5], “Not Active”; in test [6] it was “Not Active”.
For orientation: inhibition means the drop in the measured response relative to a control, in per cent. Regarding `Clc1ccc(OCCOc2ccc(-c3ccccc3)nc2Br)c(Cl)c1`, the EC50 in test [2] was determined as 6000 nM. For the same compound, in test [7], the inhibition was found to be 70%.
In the case of `Cc1ccc(OCCOc2ccc(Br)cc2C(F)(F)F)c([N+](=O)[O-])n1`, the EC50 in test [2] is 601 nM; in test [3], “Not Active”; in test [4], “Not Active”; in test [5] it was “Not Active”; in [6] it was “Not Active”.
Consider `FCc1ccc(OCCOc2ccc(Cl)cc2Cl)c(Cl)n1`, for which the EC50 in test [2] was 45 nM; in [3], “Not Active”; in test [4], “Not Active”; in test [5], “Not Active”; in test [6] it was “Not Active”.
Regarding `O=Cc1ccc(OCCOc2ccc(Cl)cc2Cl)c(Cl)n1`, the EC50 in test [2] turned out to be 1800 nM.
Turning to `Cc1ccc(OC(=O)COc2ccc(Cl)cc2Cl)c([N+](=O)[O-])n1`, the EC50 result in test [1] was “Not Active”.
On the same count and under the same terms, the same measure for `Cc1ccc(OCCOc2ccc(Cl)cc2Cl)c(CO)n1`: “Not Active”; for `CC(C)=Cc1ccc(OCCOc2ccc(Cl)cc2Cl)c(Cl)n1`: “Not Active”.
Consider `Cc1ccc(OCCOc2ccc(Cl)c(Cl)c2)c([N+](=O)[O-])n1`, for which the EC50 entry in test [1] was “Not Active”.
On to `Cc1ccc(OCCCc2ccc(Cl)cc2Cl)c([N+](=O)[O-])n1`, for which the EC50 in test [2] came to 920 nM.
Same read-out and setting: the figure for `Cc1ccc(OCCOc2cc(Cl)cc([N+](=O)[O-])c2)c([N+](=O)[O-])n1` is 3500 nM.
Regarding `Cc1ccc(NCCOc2ccc(Cl)cc2Cl)c([N+](=O)[O-])n1`, the EC50 entry in test [1] is on record as “Not Active”.
For `CCc1nc(C)ccc1OCCOc1ccc(Cl)cc1Cl`, the EC50 in [2] was 7300 nM.
Turning to `Cc1ccc(OCCOc2c(Cl)cc(Cl)cc2Cl)c([N+](=O)[O-])n1`, the EC50 in test [2] is 570 nM; in [3], “Not Active”; in test [4], “Not Active”; in test [5] it was “Not Active”; in test [6], “Not Active”.
Consider `Cc1ccc(OCCOc2ccc(Br)cc2Cl)c([N+](=O)[O-])n1`, for which the EC50 in [2] was 220 nM; in test [3] it was “Not Active”; in test [4], “Not Active”; in test [5], “Not Active”; in test [6], “Not Active”.
As to `COc1ccc(OCCOc2ccc(C)nc2[N+](=O)[O-])c(Cl)c1`, the EC50 in test [2] came out at 3900 nM.
Same read-out and setting: the same measure for `COc1cc(Cl)ccc1OCCOc1ccc(C)nc1[N+](=O)[O-]`: 5400 nM.
On to `Cc1ccc(OCCc2ccc(Cl)cc2Cl)c([N+](=O)[O-])n1`, for which the 50% effective concentration (EC50) result in test [1] is recorded as “Not Active”.
Take `Cc1ccc(OCCOc2ccc(Cl)cc2Cl)c(-c2ccccc2)n1`: the EC50 result in test [1] is recorded as “Not Active”.
For `Cc1ccc(OCCOc2ccc([N+](=O)[O-])cc2F)c([N+](=O)[O-])n1`, the EC50 in test [2] was 2800 nM.
As to `O=[N+]([O-])c1ncccc1OCCOc1ccc(Cl)cc1Cl`, the EC50 in test [2] turned out to be 2980 nM.
With `Cc1ccc(OC2CCCC2Oc2ccc(Cl)cc2Cl)c([N+](=O)[O-])n1` (stereo unspecified), the EC50 entry in test [1] is reported as “Not Active”.
Still for that read-out and setting: the entry for `Cc1ccc2oc(COc3ccc(Cl)cc3Cl)nc2n1` is “Not Active”.
As for `Cc1ccc(OCCOc2ccc(F)cc2F)c([N+](=O)[O-])n1`, the inhibition in test [8] stood at 40%.
With `O=Cc1ccc(OCCOc2ccc(Cl)cc2Cl)c(I)n1`, the EC50 in test [2] is 2100 nM.
On the same count and under the same terms, the same measure for `C=Cc1ccc(OCCOc2ccc(Cl)cc2Cl)c(Cl)n1`: 658 nM.
For `Cc1ccc(OCCOc2ccc(Cl)cc2Cl)c(Br)n1`, the EC50 is 52 nM in [2]; “Not Active” in [3]; “Not Active” in test [4]; “Not Active” in test [5]; “Not Active” in test [6].
As to `COCc1ccc(OCCOc2ccc(Cl)cc2Cl)c(Cl)n1`, the EC50 entry in test [1] is “Not Active”.
On to `Clc1ccc(OCCOc2ccc(Br)nc2Br)c(Cl)c1`, for which the EC50 in test [2] was 46 nM; in [3], “Not Active”; in test [4] it was “Not Active”; in test [5] it was “Not Active”; in test [6], “Not Active”.
As for `COC(=O)c1nc(C)ccc1OCCOc1ccc(Cl)cc1Cl`, in test [2], the EC50 is 4800 nM.
As for `Cc1cc(C)c(OCCOc2ccc(Cl)cc2Cl)c(Br)n1`, the EC50 entry in test [1] is listed as “Not Active”.
On to `Cc1ccc(OCCOc2ccc(Cl)cc2F)c([N+](=O)[O-])n1`, for which, in test [2], the EC50 was determined as 3100 nM.
Still for that read-out and setting: the figure for `Cc1ccc(OCCOc2ccc(C)nc2[N+](=O)[O-])c(C)c1` is 7200 nM.
In the case of `Cc1ccc(OCCOc2ccc(Cl)cc2Cl)c(C(=O)O)n1`, the EC50 entry in test [1] is listed as “Not Active”.
`Fc1ccc(OCCOc2ccc(Cl)cc2Cl)c(Br)n1`: the EC50 in [2] worked out at 208 nM.
Turning to `Cc1ccc(OCCOc2ccc(Cl)cc2Cl)c([N+](=O)[O-])n1`, the EC50 in test [2] is 162 nM; in test [3], “Not Active”; in test [4] it was “Not Active”; in test [5], “Not Active”; in [6], “Not Active”.
For the compound `Cc1ccc(OCCCOc2ccc(Cl)cc2Cl)c([N+](=O)[O-])n1`, in [1], the EC50 entry is “Not Active”.
On the same count and under the same terms, the same measure for `Cc1ccc(OCCOc2ccc(Cl)cc2Cl)cn1`: “Not Active”.
For the compound `Cc1ccc(OCCOc2ccc(Cl)cc2Br)c([N+](=O)[O-])n1`, the EC50 in [2] is 232 nM; in [3] it was “Not Active”; in test [4] it was “Not Active”; in test [5], “Not Active”; in [6] it was “Not Active”.
With `Cc1ccc(OCCOc2ccc(Cl)cc2Cl)c(C)n1`, in [2], the EC50 came to 2600 nM. Besides, the inhibition in test [9] was 65%.
As for `Cc1ccc(OCCOc2ccc(-c3ccccc3)cc2Cl)c([N+](=O)[O-])n1`, in [1], the EC50 result was “Not Active”.
Regarding `OCc1ccc(OCCOc2ccc(Cl)cc2Cl)c(Cl)n1`, the EC50 in test [2] worked out at 1500 nM.
For `Cc1ccc(OCCOc2ccc(Cl)cc2Cl)c([N+](=O)[O-])c1`, the EC50 in test [2] turned out to be 1300 nM. Also, the inhibition in test [10] amounted to 40%.
As to `Cc1ccc(OCCOc2ccc(F)cc2Cl)c([N+](=O)[O-])n1`, the EC50 in test [2] was 2600 nM.
On to `Cc1ccc(OCCOc2ccc(Cl)cc2Cl)c(I)n1`, for which the EC50 in test [2] was 54 nM; in test [3], “Not Active”; in test [4] it was “Not Active”; in [5] it was “Not Active”; in test [6], “Not Active”.
`Cc1ccc(OCCOc2ccc(Cl)cc2)c([N+](=O)[O-])n1`: the EC50 entry in [1] is on record as “Not Active”.
On the same count and under the same terms, the entry for `Cc1ccc(OCCOc2cccc(Cl)c2Cl)c([N+](=O)[O-])n1` is “Not Active”; for `Cc1ccc(OCCOc2ccc(Cl)cc2Cl)c(N)n1` it is “Not Active”; for `Cc1ccc(OCCOc2ccc(Cl)cc2Cl)c(C(=O)N(C)C)n1` it is “Not Active”.
